Read-outs that look alike come from different tables or passages of the source.
Key:
[1] = tested on: Key Broadleaf Weed and Crop Species; test: Post-emergent Test II herbicidal activity (Table 15); assay type: in vivo; settings: post-emergence, 336 h, 14 d; for pest or weed control at 35 g/ha: 35 g ai/ha
Method: (§1) Post-emergent Test II: Seeds or nutlets of the desired test plant species were planted in Sun Gro Metro-Mix® 360 planting mixture, which typically has a pH of 6.0 to 6.8 and an organic matter content of about 30 percent, in plastic pots with a surface area of 64 square centimeters. When required to ensure good germination and healthy plants, a fungicide treatment and/or other chemical or physical treatment was applied. The plants were grown for 7-21 d in a greenhouse with an approximate 15 h photoperiod which was maintained at about 23-29° C. during the day and 22-28° C. during the night. Nutrients and water were added on a regular basis and supplemental lighting was provided with overhead metal halide 1000-Watt lamps as necessary. The plants were employed for testing when they reached the first or second true leaf stage.
(§2) A weighed amount, determined by the highest rate to be tested, of each test compound was placed in a 25 mL glass vial and was dissolved in 4 mL of a 97:3 v/v mixture of acetone and DMSO to obtain concentrated stock solutions. […] The concentrated stock solutions obtained were diluted with 20 mL of an aqueous mixture containing acetone, water, isopropyl alcohol, DMSO, Atplus 411F crop oil concentrate, and Triton® X-155 surfactant in a 48.5:39:10:1.5:1.0:0.02 v/v ratio to obtain spray solutions containing the highest application rates. Additional application rates were obtained by serial dilution of 12 mL of the high rate solution into a solution containing 2 mL of 97:3 v/v mixture of acetone and DMSO and 10 mL of an aqueous mixture containing acetone, water, isopropyl alcohol, DMSO, Atplus 411F crop oil concentrate, and Triton X-155 surfactant in a 48.5:39:10:1.5:1.0:0.02 v/v ratio to obtain 1/2×, 1/4×, 1/8× and 1/16× rates of the high rate. Compound requirements are based upon a 12 mL application volume at a rate of 187 liters per hectare (L/ha). Formulated compounds were applied to the plant material with an overhead Mandel track sprayer equipped with 8002E nozzles calibrated to deliver 187 L/ha over an application area of 0.503 square meters at a spray height of 18 inches (43 cm) above the average plant canopy height. Control plants were sprayed in the same manner with the solvent blank.
(§3) The treated plants and control plants were placed in a greenhouse as described above and watered by subirrigation to prevent wash-off of the test compounds. After 14 d, the condition of the test plants as compared with that of the untreated plants was determined visually and scored on a scale of 0 to 100 percent where 0 corresponds to no injury and 100 corresponds to complete kill.

[2] = tested on: Key Grass and Sedge Weeds as well as Grass Crops; test: Post-emergent Test II herbicidal activity (Table 16); assay type: in vivo; settings: for pest or weed control at 35 g/ha / pest or weed control at 70 g/ha / pest or weed control at 140 g/ha: post-emergence, 336 h, 14 days after application; for Visual Growth Reduction (%) 14 Days After Application, ECHCG / Visual Growth Reduction (%) 14 Days After Application, SETFA / Visual Growth Reduction (%) 14 Days After Application, ZEAMX / Visual Growth Reduction (%) 14 Days After Application, ORYSA / Visual Growth Reduction (%) 14 Days After Application, TRZAS / Visual Growth Reduction (%) 14 Days After Application, CYPES: 14 d
Method: as §1, §2, §3

Cn1ccc2ccc(-c3nc(C(=O)O)c(Cl)c(N)c3F)cc21 [Compound 1.11]
173 to 176 °C: melting point

C=Cc1c(C(=O)OC)nc(-c2ccc3cc[nH]c3c2F)c(F)c1N [Compound 1.18, Methyl 4-amino-5-fluoro-6-(7-fluoro-1H-indol-6-yl)-3-vinylpicolinate]
164 to 166 °C: melting point

C=Cc1c(N)nc(-c2ccc3cc[nH]c3c2F)nc1C(=O)OC [Compound 1.38]
181 to 182 °C: melting point

COC(=O)c1nc(-c2cccc3c2ccn3C)c(F)c(N)c1Cl [Compound 1.41]
167 to 169 °C: melting point

Cn1ccc2c(-c3nc(C(=O)O)c(Cl)c(N)c3F)cccc21 [Compound 1.42]
158 to 160 °C: melting point

COC(=O)c1nc(-c2ccc(Cl)c3cc[nH]c23)nc(N)c1OC [Compound 1.50]
147 to 149 °C: melting point

COC(=O)c1nc(-c2ccc3occc3c2)c(F)c(N)c1Cl [Compound 2.01]
114 to 117 °C: melting point

Nc1c(F)c(-c2ccc3sccc3c2)nc(C(=O)O)c1Cl [Compound 3.04]
149 to 150 °C: melting point

COC(=O)c1nc(-c2cccc3c(Br)csc23)c(F)c(N)c1Cl [Compound 3.26, Methyl 4-amino-6-(3-bromobenzo[b]thiophen-7-yl)-3-chloro-5-fluoropicolinate]
181 to 184 °C: melting point

Nc1c(F)c(-c2ccc3[nH]ncc3c2)nc(C(=O)O)c1Cl [Compound 4.02]
284 to 287 °C: melting point

Cn1ncc2cc(-c3nc(C(=O)O)c(Cl)c(N)c3F)ccc21 [Compound 4.04]
186 to 188 °C: melting point

Cn1ncc2c(-c3nc(C(=O)O)c(Cl)c(N)c3F)cccc21 [Compound 4.11]
173 to 175 °C: melting point

COC(=O)c1nc(-c2cccc3[nH]ncc23)c(F)c(N)c1Cl [Compound 4.12]
212 to 215 °C: melting point

COC(=O)c1nc(-c2ccc3nc[nH]c3c2)c(F)c(N)c1Cl [Compound 7.01]
219 to 221 °C: melting point

Cn1cnc2ccc(-c3nc(C(=O)O)c(Cl)c(N)c3F)cc21 [Compound 7.03]
230 to 235 °C (dec.): melting point

COC(=O)c1nc(-c2ccc3c(N(C)C)noc3c2)c(F)c(N)c1Cl [Compound 8.01]
0 to 29%: pest or weed control at 35 g/ha ([1]; Abutilon theophrasti, velvetleaf (Abutilon theophrasti), read-out: Visual Growth Reduction (%) 14 Days After Application, ABUTH) | pest or weed control at 35 g/ha ([1]; Amaranthus retroflexus, redroot pigweed (Amaranthus retroflexus), read-out: Visual Growth Reduction (%) 14 Days After Application, AMARE) | pest or weed control at 35 g/ha ([1]; Brassica napus, oilseed rape, canola (Brassica napus), read-out: Visual Growth Reduction (%) 14 Days After Application, BRSNN) | pest or weed control at 70 g/ha ([1]; Brassica napus, oilseed rape, canola (Brassica napus), 70 g ai/ha, read-out: Visual Growth Reduction (%) 14 Days After Application, BRSNN) | pest or weed control at 140 g/ha ([1]; Brassica napus, oilseed rape, canola (Brassica napus), 140 g ai/ha, read-out: Visual Growth Reduction (%) 14 Days After Application, BRSNN) | pest or weed control at 35 g/ha ([1]; Chenopodium album, lambsquarters (Chenopodium album), read-out: Visual Growth Reduction (%) 14 Days After Application, CHEAL) | pest or weed control at 35 g/ha ([1]; Euphorbia heterophylla, wild poinsettia (Euphorbia heterophylla), read-out: Visual Growth Reduction (%) 14 Days After Application, EPHHL) | pest or weed control at 35 g/ha ([1]; Helianthus annuus, sunflower (Helianthus annuus), read-out: Visual Growth Reduction (%) 14 Days After Application, HELAN) | pest or weed control at 35 g/ha ([2]; Cyperus esculentus, yellow nutsedge (Cyperus esculentus), 35 g ai/ha, read-out: Visual Growth Reduction (%) 14 Days After Application CYPES) | pest or weed control at 70 g/ha ([2]; Cyperus esculentus, yellow nutsedge (Cyperus esculentus), 70 g ai/ha, read-out: Visual Growth Reduction (%) 14 Days After Application CYPES) | pest or weed control at 140 g/ha ([2]; Cyperus esculentus, yellow nutsedge (Cyperus esculentus), 140 g ai/ha, read-out: Visual Growth Reduction (%) 14 Days After Application CYPES) | pest or weed control at 35 g/ha ([2]; Echinochloa crus-galli, barnyardgrass (Echinochloa crus-galli), 35 g ai/ha, read-out: Visual Growth Reduction (%) 14 Days After Application ECHCG) | pest or weed control at 70 g/ha ([2]; Echinochloa crus-galli, barnyardgrass (Echinochloa crus-galli), 70 g ai/ha, read-out: Visual Growth Reduction (%) 14 Days After Application ECHCG) | pest or weed control at 140 g/ha ([2]; Echinochloa crus-galli, barnyardgrass (Echinochloa crus-galli), 140 g ai/ha, read-out: Visual Growth Reduction (%) 14 Days After Application ECHCG) | pest or weed control at 35 g/ha ([2]; Oryza sativa, rice (Oryza sativa), 35 g ai/ha, read-out: Visual Growth Reduction (%) 14 Days After Application ORYSA) | pest or weed control at 70 g/ha ([2]; Oryza sativa, rice (Oryza sativa), 70 g ai/ha, read-out: Visual Growth Reduction (%) 14 Days After Application ORYSA) | pest or weed control at 140 g/ha ([2]; Oryza sativa, rice (Oryza sativa), 140 g ai/ha, read-out: Visual Growth Reduction (%) 14 Days After Application ORYSA) | pest or weed control at 35 g/ha ([2]; Setaria faberi, giant foxtail (Setaria faberi), 35 g ai/ha, read-out: Visual Growth Reduction (%) 14 Days After Application SETFA) | pest or weed control at 70 g/ha ([2]; Setaria faberi, giant foxtail (Setaria faberi), 70 g ai/ha, read-out: Visual Growth Reduction (%) 14 Days After Application SETFA) | pest or weed control at 140 g/ha ([2]; Setaria faberi, giant foxtail (Setaria faberi), 140 g ai/ha, read-out: Visual Growth Reduction (%) 14 Days After Application SETFA) | pest or weed control at 35 g/ha ([2]; Triticum aestivum, wheat, spring (Triticum aestivum), 35 g ai/ha, read-out: Visual Growth Reduction (%) 14 Days After Application TRZAS) | pest or weed control at 70 g/ha ([2]; Triticum aestivum, wheat, spring (Triticum aestivum), 70 g ai/ha, read-out: Visual Growth Reduction (%) 14 Days After Application TRZAS) | pest or weed control at 140 g/ha ([2]; Triticum aestivum, wheat, spring (Triticum aestivum), 140 g ai/ha, read-out: Visual Growth Reduction (%) 14 Days After Application TRZAS) | pest or weed control at 35 g/ha ([2]; Zea mays, maize, corn (Zea mays), 35 g ai/ha, read-out: Visual Growth Reduction (%) 14 Days After Application ZEAMX) | pest or weed control at 70 g/ha ([2]; Zea mays, maize, corn (Zea mays), 70 g ai/ha, read-out: Visual Growth Reduction (%) 14 Days After Application ZEAMX) | pest or weed control at 140 g/ha ([2]; Zea mays, maize, corn (Zea mays), 140 g ai/ha, read-out: Visual Growth Reduction (%) 14 Days After Application ZEAMX)

Nc1c(Cl)c(C(=O)O)nc(-c2ccc3cc[nH]c3c2)c1Cl [Compound 106]
C (75-84): Visual Growth Reduction (%) 14 Days After Application, ECHCG ([2]; barnyardgrass (Echinochloa crus-galli), 140 g ai/ha)
D (60-74): Visual Growth Reduction (%) 14 Days After Application, ECHCG ([2]; barnyardgrass (Echinochloa crus-galli), 70 g ai/ha)
G (0-29): Visual Growth Reduction (%) 14 Days After Application, ECHCG ([2]; barnyardgrass (Echinochloa crus-galli), 35 g ai/ha) | Visual Growth Reduction (%) 14 Days After Application, SETFA ([2]; giant foxtail (Setaria faberi), 35 g ai/ha) | Visual Growth Reduction (%) 14 Days After Application, SETFA ([2]; giant foxtail (Setaria faberi), 70 g ai/ha) | Visual Growth Reduction (%) 14 Days After Application, SETFA ([2]; giant foxtail (Setaria faberi), 140 g ai/ha) | Visual Growth Reduction (%) 14 Days After Application, ZEAMX ([2]; maize, corn (Zea mays), 35 g ai/ha) | Visual Growth Reduction (%) 14 Days After Application, ZEAMX ([2]; maize, corn (Zea mays), 70 g ai/ha) | Visual Growth Reduction (%) 14 Days After Application, ZEAMX ([2]; maize, corn (Zea mays), 140 g ai/ha) | Visual Growth Reduction (%) 14 Days After Application, ORYSA ([2]; rice (Oryza sativa), 35 g ai/ha) | Visual Growth Reduction (%) 14 Days After Application, ORYSA ([2]; rice (Oryza sativa), 70 g ai/ha) | Visual Growth Reduction (%) 14 Days After Application, ORYSA ([2]; rice (Oryza sativa), 140 g ai/ha) | Visual Growth Reduction (%) 14 Days After Application, TRZAS ([2]; wheat, spring (Triticum aestivum), 35 g ai/ha) | Visual Growth Reduction (%) 14 Days After Application, TRZAS ([2]; wheat, spring (Triticum aestivum), 70 g ai/ha) | Visual Growth Reduction (%) 14 Days After Application, TRZAS ([2]; wheat, spring (Triticum aestivum), 140 g ai/ha) | Visual Growth Reduction (%) 14 Days After Application, CYPES ([2]; yellow nutsedge (Cyperus esculentus), 35 g ai/ha) | Visual Growth Reduction (%) 14 Days After Application, CYPES ([2]; yellow nutsedge (Cyperus esculentus), 70 g ai/ha) | Visual Growth Reduction (%) 14 Days After Application, CYPES ([2]; yellow nutsedge (Cyperus esculentus), 140 g ai/ha)

From patent US20170050957A1, “4-AMINO-6-(HETEROCYCLIC)PICOLINATES AND 6-AMINO-2-(HETEROCYCLIC)PYRIMIDINE-4-CARBOXYLATES AND THEIR USE AS HERBICIDES” (Dow AgroSciences LLC, priority 2013, published 2017)
